Reference: patent US4175081A, “5-Substituted thiadiazole ureas” (priority 1977, dated 1979)

Key:
Crabgrass (CG) [1] = test: Pre-emergence herbicide test; format: in vivo, Digitaria sanquinalis; details: Digitaria sanguinalis, pre-emergence, 336 h; 8 lb/acre; two weeks after treatment
Method in brief: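 Crabgrass (Digitaria sanquinalis) was surface seeded in 3' plastic pots of potting soil, covered with screened soil, and watered by sub-irrigation in greenhouse trays. Pots were seeded one day before spraying in a hood with a moving belt and fixed nozzle. Plants stayed in the greenhouse on sub-irrigation, and pre-emergence control was rated visually two weeks after treatment.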

[2] = system: Yellow foxtail grass (YF); test: Pre-emergence herbicide test; format: in vivo, Setaria glauca; details: Setaria, 336 h, 8 lb/acre, two weeks after treatment
Method in brief: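 Visual rating of injury/control made two weeks after a pre-emergence spray of 8 or 4 lbs active per acre (38 gal/acre) onto pots seeded the previous day. Greenhouse watering by sub-irrigation only.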

Johnson grass (JG) [3] = test: Pre-emergence herbicide test; format: in vivo, Sorgum helepense; details: Sorghum halepense, 336 h, 8 lb/acre, two weeks after treatment
Method in brief: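 Visual injury or control rating two weeks post-treatment, after pre-emergence spray of 8 or 4 lbs active per acre (38 gal/acre) onto pots sown the previous day. Greenhouse watering by sub-irrigation only.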

Barnyard grass (BG) [4] = test: Pre-emergence herbicide test; format: in vivo; details: Echinochloa crus-galli, 336 h, 8 lb/acre, two weeks after treatment
Method in brief: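 Greenhouse pre-emergence spray test: pots seeded one day before treatment received compound at rates of 8 or 4 lb/acre (38 gal/acre). Visual injury/control scores for Echinochloa crus-galli taken at two weeks, with watering by sub-irrigation only.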

Turnip (TP) [5] = test: Pre-emergence herbicide test; format: in vivo, Brassica sp.; details: Brassica rapa, pre-emergence, 336 h; 8 lb/acre; two weeks after treatment
Method in brief: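 In this pre-emergence greenhouse test, turnip was seeded on the surface of potting soil in 3' plastic pots, lightly covered with screened soil, and watered from below. One day later the pots were sprayed in a belt-fed spray hood. Watering continued only by sub-irrigation, and percent control was visually scored two weeks after treatment.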

Cotton (CT) [6] = test: Pre-emergence herbicide test; format: in vivo, Gossypium hirsutum var. DPL smooth leaf; details: Gossypium hirsutum, 336 h, 8 lb/acre, two weeks after treatment
Method in brief: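 Visual injury/control ratings were taken at two weeks post-spray. Pots seeded a day earlier received compound pre-emergence at 8 lbs/acre, or 4 lbs/acre, in a 38 gallon/acre spray volume, and were then held in the greenhouse, watered only from below.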

Corn (CN) [7] = test: Pre-emergence herbicide test; format: in vivo; details: Zea mays, 336 h, 8 lb/acre, two weeks after treatment
Method in brief: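 Visual injury/control ratings were made 2 weeks post-spray on corn pots seeded (4 seeds, seed-diameter depth) the day before treatment. Application was a belt-hood spray of 38 gal/acre delivering 8 lbs active per acre, with a 4 lbs/acre rate also formulated. Watering was by sub-irrigation throughout.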

Bean (BN) [8] = test: Pre-emergence herbicide test; format: in vivo, Phaseolus vulgaris var. Black Valentine; details: Phaseolus vulgaris, 336 h, 8 lb/acre, two weeks after treatment
Method in brief: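 Visual injury/control ratings were taken two weeks post-spray on sub-irrigated Phaseolus vulgaris var. Black Valentine. Pots were sown a day before treatment. Pre-emergence spray delivered 8 lbs actual compound per acre (or 4 lbs/acre) at 38 gallons per acre.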

Crabgrass (CG) [9] = test: Post-emergence herbicide test; format: in vivo, Digitaria sanquinalis; details: Digitaria sanguinalis, post-emergence, 336 h; 8 lb/acre; two weeks after treatment
Method in brief: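 Crabgrass (Digitaria sanquinalis) was surface seeded individually in 3' plastic pots of potting soil, covered with screened soil, and watered by sub-irrigation in greenhouse trays. Planting was staggered so seedlings reached the target stage together. Post-emergence sprays were applied in a hood with a removable belt and fixed nozzle, and control was visually rated two weeks after treatment.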

[10] = system: Yellow foxtail grass (YF); test: Post-emergence herbicide test; format: in vivo, Setaria glauca; details: Setaria, 336 h, 8 lb/acre, two weeks after treatment
Method in brief: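 Visual rating of injury/control made 2 weeks post-spray. Seedlings at a uniform growth stage in soil-filled pots received a hood spray of 8 lbs/acre active compound, 38 gallons/acre volume, with a 4 lbs/acre rate also formulated. Watering was by sub-irrigation only.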

Johnson grass (JG) [11] = test: Post-emergence herbicide test; format: in vivo, Sorgum helepense; details: Sorghum halepense, 336 h, 8 lb/acre, two weeks after treatment
Method in brief: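 Visual injury or control scores taken 2 weeks after a post-emergence spray of pot-grown plants. Application was 8 lbs/acre (or 4 lbs/acre) in 38 gal/acre. Plants were held in the greenhouse with sub-irrigation only.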

Barnyard grass (BG) [12] = test: Post-emergence herbicide test; format: in vivo; details: Echinochloa crus-galli, 336 h, 8 lb/acre, two weeks after treatment
Method in brief: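 Greenhouse pot-grown barnyard grass seedlings sprayed post-emergence at 8 lbs active compound per acre (some at 4 lbs/acre) in 38 gallons per acre, then sub-irrigated. Injury or control rated visually two weeks after treatment.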

Turnip (TP) [13] = test: Post-emergence herbicide test; format: in vivo, Brassica sp.; details: Brassica rapa, post-emergence, 336 h; 8 lb/acre; two weeks after treatment
Method in brief: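 A greenhouse post-emergence herbicide test on turnip. Seeds were sown on the surface of potting soil in 3' plastic pots, lightly covered with screened soil and watered from below. Planting was timed so seedlings had 1 or 2 true leaves above the cotyledons at spraying, done in a hood with a fixed nozzle. Control or injury was scored by eye after two weeks.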

Cotton (CT) [14] = test: Post-emergence herbicide test; format: in vivo, Gossypium hirsutum var. DPL smooth leaf; details: Gossypium hirsutum, post-emergence, 336 h; 8 lb/acre; two weeks after treatment
Method in brief: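 This greenhouse post-emergence test measured how well spray treatments controlled cotton. Seedlings of Gossypium hirsutum var. DPL smooth leaf, with expanded cotyledons and a first true leaf 1' in length, were sprayed with 50 ml formulations in a belt-fed spray hood. They were then returned to the greenhouse and watered only by sub-irrigation. Injury was scored visually as % control after two weeks.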

Corn (CN) [15] = test: Post-emergence herbicide test; format: in vivo; details: Zea mays, 336 h, 8 lb/acre, two weeks after treatment
Method in brief: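 Greenhouse seedlings grown in potting soil and sprayed post-emergence at 8 lbs compound/acre (formulations also made for 4 lbs/acre) in 38 gallons/acre spray volume. Watering by sub-irrigation only. Injury or control rated visually two weeks after treatment.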

Bean (BN) [16] = test: Post-emergence herbicide test; format: in vivo, Phaseolus vulgaris var. Black Valentine; details: Phaseolus vulgaris, post-emergence, 336 h; 8 lb/acre; two weeks after treatment
Method in brief: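 Bean seedlings (Phaseolus vulgaris var. Black Valentine) were grown in potting soil in 3' pots until the primary leaves expanded. They were then sprayed under a hood with a removable belt and fixed nozzle, using 50 ml formulations. Afterward they were returned to the greenhouse and watered only by sub-irrigation. Percent control was judged visually two weeks after treatment.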

[17] = system: variety of crops and weed species; test: Pre- and post-emergence herbicide tests, overall assessment of Tables III-VI; format: in vivo; details: data of Tables III-VI
Protocol: All crop and weed species were planted individually in 3' plastic pots containing potting soil. Four seeds each of corn, cotton, and snapbeans were seeded to a depth equal to the diameter of the seed. All other species were surface seeded and sprinkled with screened soil in an amount sufficient to cover the seed. Immediately after planting, all pots were watered by sub-irrigation in greenhouse trays. Pots for the pre-emergence phase were seeded one day before treatment.
Compounds were tested at rates of application equivalent to 8 lbs. of actual compound per acre in a spray volume of 38 gallons per acre. Spray hood constants required to deliver the above volume are as follows:
Two weeks after treatment, pre- and post-emergence injury or control was visually rated, and the results were as shown in the following tables. Pre-emergence data are provided in TABLE III and post-emergence data are provided in TABLE IV, for compounds having the formula illustrated in TABLE I. Correspondingly, pre-emergence and post-emergence data, respectively, are set forth in TABLES V AND VI, for compounds having the formula illustrated in TABLE II.

Amaranth pigweed (PW) [18] = test: Pre-emergence herbicide test; format: in vivo, Amaranthus retroflexus; details: 336 h, 8 lb/acre, two weeks after treatment
Method in brief: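 Visual injury or control ratings were made at two weeks on pre-emergence pots, sub-irrigated in the greenhouse. Seeds were sown a day before a hood spray delivering 8 lbs/acre (or 4 lbs/acre) of compound in 38 gallons per acre.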

Amaranth pigweed (PW) [19] = test: Post-emergence herbicide test; format: in vivo, Amaranthus retroflexus; details: 336 h, 8 lb/acre, two weeks after treatment
Method in brief: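 Visual injury or control ratings were made two weeks after spraying, with greenhouse watering by sub-irrigation only. Treatment was post-emergence, when pigweed seedlings had 1 or 2 true leaves, at 8 lbs active compound per acre (4 lbs/acre formulations also made) in a 38 gallons-per-acre spray volume.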

| SMILES | pest or weed control at 8966.8 g/ha (Crabgrass (CG) [1]) [%] | pest or weed control at 8966.8 g/ha [2] [%] | pest or weed control at 8966.8 g/ha (Johnson grass (JG) [3]) [%] | pest or weed control at 8966.8 g/ha (Barnyard grass (BG) [4]) [%] | pest or weed control at 8966.8 g/ha (Turnip (TP) [5]) [%] | pest or weed control at 8966.8 g/ha (Cotton (CT) [6]) [%] | pest or weed control at 8966.8 g/ha (Corn (CN) [7]) [%] | pest or weed control at 8966.8 g/ha (Bean (BN) [8]) [%] | pest or weed control at 8966.8 g/ha (Crabgrass (CG) [9]) [%] | pest or weed control at 8966.8 g/ha [10] [%] | pest or weed control at 8966.8 g/ha (Johnson grass (JG) [11]) [%] | pest or weed control at 8966.8 g/ha (Barnyard grass (BG) [12]) [%] | pest or weed control at 8966.8 g/ha (Turnip (TP) [13]) [%] | pest or weed control at 8966.8 g/ha (Cotton (CT) [14]) [%] | pest or weed control at 8966.8 g/ha (Corn (CN) [15]) [%] | pest or weed control at 8966.8 g/ha (Bean (BN) [16]) [%] | herbicidal effectiveness / selectivity, in words [17] | pest or weed control at 8966.8 g/ha (Amaranth pigweed (PW) [18]) [%] | pest or weed control at 8966.8 g/ha (Amaranth pigweed (PW) [19]) [%] |
| --- | --- | --- | --- | --- | --- | --- | --- | --- | --- | --- | --- | --- | --- | --- | --- | --- | --- | --- | --- |
| O=C(Nc1ccc(Cl)c(Cl)c1)Nc1nnc(C(F)(F)F)s1 [Example 16] | 10 | 10 | 10 | 10 | 30 | 30 | 30 | 80 | 20 | 20 | 20 | 20 | 40 | 20 | 20 | 40 | more selective when applied to a certain crop or weed species |  |  |
| Cc1nnc(NC(=O)N(C)C)s1 [Example 19] | 10 |  | 20 | 10 | 20 | 30 | 80 | 80 | 20 | 20 | 20 | 10 | 50 | 40 | 20 | 50 | The converse of this relationship | 10 | 40 |
